Experiment [1] has as its target human CB1 receptor (hCB1) (Homo sapiens, UniProt P21554). Kind of experiment: cell-based. The note with it: for EC50: groups >100 nM-10 μM and >10 μM, cAMP, CHO-K1 hCB1, read-out: EC50 HCB1; for +/− HCB1: agonist or inverse agonist at hCB1. It is filed as cell-based. In outline: (§1)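 Agonism or inverse agonism was assessed as change in intracellular cAMP in CHO-K1 cells expressing human CB1 or rat CB2 (genomic DNA, pcDNA3.1).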

A further experiment has as its target T1, rat CB2 receptor (rCB2) (Rattus norvegicus, UniProt Q9QZN9).
T1 sequence (Q9QZN9 1-360): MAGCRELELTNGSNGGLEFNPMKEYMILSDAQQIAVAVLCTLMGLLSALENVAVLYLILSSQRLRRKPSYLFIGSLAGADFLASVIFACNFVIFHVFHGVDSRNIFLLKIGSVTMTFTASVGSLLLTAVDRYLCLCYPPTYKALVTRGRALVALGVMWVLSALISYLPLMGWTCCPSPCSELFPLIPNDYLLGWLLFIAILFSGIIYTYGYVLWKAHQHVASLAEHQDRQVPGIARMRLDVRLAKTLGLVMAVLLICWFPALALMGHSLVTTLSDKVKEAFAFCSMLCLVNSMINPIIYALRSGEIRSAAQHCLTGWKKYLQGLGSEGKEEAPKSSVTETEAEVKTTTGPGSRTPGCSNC
Kind of experiment: cell-based. In kind it is cell-based. The following applies: for +/− RCB2: agonist or inverse agonist at rCB2; for EC50: groups >100 nM-10 μM and >10 μM, cAMP, CHO-K1 rCB2, read-out: EC50 RCB2. The method in brief: as §1

What is called pEC50 is −log10 of the EC50, conventionally taken in molar units. Higher therefore signals a small EC50. By EC50 is commonly meant the concentration at which the effect is half-maximal.

pEC50: −log10 of the molar value. Read-outs that look alike come from different tables or passages of the source.

human CB1 receptor (hCB1), sequence (P21554 whole entry): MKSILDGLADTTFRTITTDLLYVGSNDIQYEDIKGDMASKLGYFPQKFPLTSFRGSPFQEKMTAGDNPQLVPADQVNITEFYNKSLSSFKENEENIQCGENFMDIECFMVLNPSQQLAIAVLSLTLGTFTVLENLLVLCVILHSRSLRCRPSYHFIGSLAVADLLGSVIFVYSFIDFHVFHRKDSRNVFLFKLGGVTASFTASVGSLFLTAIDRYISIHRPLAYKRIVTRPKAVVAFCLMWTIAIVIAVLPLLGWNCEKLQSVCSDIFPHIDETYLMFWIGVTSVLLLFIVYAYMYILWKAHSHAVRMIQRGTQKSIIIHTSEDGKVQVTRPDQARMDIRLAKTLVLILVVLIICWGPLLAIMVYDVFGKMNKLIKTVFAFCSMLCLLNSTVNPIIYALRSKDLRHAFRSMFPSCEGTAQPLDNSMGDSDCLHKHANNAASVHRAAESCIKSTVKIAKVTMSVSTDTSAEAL

With `CCC(=O)N1CCn2c(-c3ccccc3)nc(C(=O)N[C@H](C(=O)NC)C(C)(C)C)c2C1` [Compound 189, (S)-N-(3,3-dimethyl-1-(methylamino)-1-oxobutan-2-yl)-3-phenyl-7-propionyl-5,6,7,8-tetrahydroimidazo[1,5-a]pyrazine-1-carboxamide], the pEC50 in experiment [1] is under 5.00. For the same compound, the “+/− RCB2” value on rat CB2 receptor (rCB2) is on record as “+”.

In the case of `CNC(=O)[C@@H](NC(=O)c1nc(-c2cc(F)cc(C(N)=O)c2)n2c1CN(C)CCC2)C(C)(C)C` [Compound 416, (S)-3-(3-carbamoyl-5-fluorophenyl)-N-(3,3-dimethyl-1-(methylamino)-1-oxobutan-2-yl)-8-methyl-6,7,8,9-tetrahydro-5H-imidazo[1,5-a][1,4]diazepine-1-carboxamide], the pEC50 in experiment [1] was under 5.00. Further, at rat CB2 receptor (rCB2), the “+/− RCB2” value was “+”.

In experiment [1], `CNC(=O)[C@@H](NC(=O)c1nc(/C=C/c2ccccc2)n2c1CN(C)CCC2)C(C)(C)C` [Compound 336, (S,E)-N-(3,3-dimethyl-1-(methylamino)-1-oxobutan-2-yl)-8-methyl-3-styryl-6,7,8,9-tetrahydro-5H-imidazo[1,5-a][1,4]diazepine-1-carboxamide] showed a pEC50 of under 5.00. On rat CB2 receptor (rCB2), the “+/− RCB2” value is reported as “−”.

Regarding `CNC(=O)[C@@H](NC(=O)c1nc(-c2ccc(-n3cccn3)cc2)n2c1CN(C)CCC2)C(C)(C)C` [Compound 390, (S)-3-(4-(1H-pyrazol-1-yl)phenyl)-N-(3,3-dimethyl-1-(methylamino)-1-oxobutan-2-yl)-8-methyl-6,7,8,9-tetrahydro-5H-imidazo[1,5-a][1,4]diazepine-1-carboxamide], the pEC50 in experiment [1] was under 5.00. Also, the “+/− RCB2” value on rat CB2 receptor (rCB2) is reported as “−”.

In turn, `CNC(=O)[C@@H](NC(=O)c1nc(-c2ccc(OC)c(C)c2)n2c1CN(C)CCC2)C(C)(C)C` [Compound 350, (S)-N-(3,3-dimethyl-1-(methylamino)-1-oxobutan-2-yl)-3-(4-methoxy-3-methylphenyl)-8-methyl-6,7,8,9-tetrahydro-5H-imidazo[1,5-a][1,4]diazepine-1-carboxamide] showed a pEC50 in experiment [1] of under 5.00. In addition, the “+/− RCB2” value on rat CB2 receptor (rCB2) is on record as “−”.

With `CNC(=O)[C@@H](NC(=O)c1nc(-c2c(F)cccc2OC)n2c1CN(C)CCC2)C(C)(C)C` [Compound 365, N-((S)-3,3-dimethyl-1-(methylamino)-1-oxobutan-2-yl)-3-(2-fluoro-6-methoxyphenyl)-8-methyl-6,7,8,9-tetrahydro-5H-imidazo[1,5-a][1,4]diazepine-1-carboxamide], the pEC50 in experiment [1] is under 5.00. Moreover, on rat CB2 receptor (rCB2), the “+/− RCB2” value is recorded as “+”.

Turning to `CN1CCn2c(-c3ccccc3)nc(C(=O)NC3(CO)CCCC3)c2C1` [Compound 235, N-(1-(hydroxymethyl)cyclopentyl)-7-methyl-3-phenyl-5,6,7,8-tetrahydroimidazo[1,5-a]pyrazine-1-carboxamide], the pEC50 (in experiment [1]; on rat CB2 receptor (rCB2)) was under 5.00 each time.

Turning to `CC(C)(C)CNC(=O)c1nc(-c2ccccc2)n2c1CNCC2` [Compound 24, N-neopentyl-3-phenyl-5,6,7,8-tetrahydroimidazo[1,5-a]pyrazine-1-carboxamide], the EC50 (in experiment [1]; at rat CB2 receptor (rCB2)) was over 10000 nM in each case.

For the compound `CNC(=O)[C@@H](NC(=O)c1nc(C2=CCCCCC2)n2c1CN(C)CCC2)C(C)(C)C` [Compound 457, (S,E)-3-cycloheptenyl-N-(3,3-dimethyl-1-(methylamino)-1-oxobutan-2-yl)-8-methyl-6,7,8,9-tetrahydro-5H-imidazo[1,5-a][1,4]diazepine-1-carboxamide], the pEC50 in experiment [1] is under 5.00. Also, at rat CB2 receptor (rCB2), the “+/− RCB2” value is on record as “−”.

For `CC(=O)N1CCn2c(-c3ccccc3)nc(C(=O)NC3CCCCC3)c2C1` [Compound 177, 7-acetyl-N-cyclohexyl-3-phenyl-5,6,7,8-tetrahydroimidazo[1,5-a]pyrazine-1-carboxamide], the pEC50 in experiment [1] was under 5.00. At rat CB2 receptor (rCB2), the “+/− RCB2” value is listed as “−”.

For `CCS(=O)(=O)N1CCn2c(-c3ccccc3)nc(C(=O)NN3CCCCC3)c2C1` [Compound 115, 7-(ethylsulfonyl)-3-phenyl-N-(piperidin-1-yl)-5,6,7,8-tetrahydroimidazo[1,5-a]pyrazine-1-carboxamide], in experiment [1], the EC50 was over 10000 nM. The “+/− RCB2” value at rat CB2 receptor (rCB2) is reported as “−”.

`Cc1noc([C@@H](NC(=O)c2nc(-c3ccccc3)n3c2CNCCC3)C(C)(C)C)n1` [Compound 519, (S)-N-(2,2-dimethyl-1-(3-methyl-1,2,4-oxadiazol-5-yl)propyl)-3-phenyl-6,7,8,9-tetrahydro-5H-imidazo[1,5-a][1,4]diazepine-1-carboxamide] showed a pEC50 in experiment [1] of under 5.00. Moreover, the “+/− RCB2” value at rat CB2 receptor (rCB2) is “+”.

In experiment [1], `COC(=O)[C@@H](NC(=O)c1nc(-c2ccccc2)n2c1CN(C)CC2)C(C)(C)C` [Compound 86, (S)-methyl 3,3-dimethyl-2-(7-methyl-3-phenyl-5,6,7,8-tetrahydro-imidazo[1,5-a]pyrazine-1-carboxamido)butanoate] had a pEC50 of under 5.00. The “+/− RCB2” value at rat CB2 receptor (rCB2) is “+”.

Take `CN1CCn2c(-c3ccc(Cl)cc3F)nc(C(=O)N3CCN(c4ncccn4)CC3)c2C1` [Compound 211, (3-(4-chloro-2-fluorophenyl)-7-methyl-5,6,7,8-tetrahydroimidazo[1,5-a]pyrazin-1-yl)(4-(pyrimidin-2-yl)piperazin-1-yl)methanone]: the EC50 (in experiment [1]; on rat CB2 receptor (rCB2)) was over 10000 nM throughout.

In experiment [1], `CNC(=O)[C@@H](NC(=O)c1nc(CCC2CC2)n2c1CN(C)CCC2)C(C)(C)C` [Compound 490, (S)-3-(2-cyclopropylethyl)-N-(3,3-dimethyl-1-(methylamino)-1-oxobutan-2-yl)-8-methyl-6,7,8,9-tetrahydro-5H-imidazo[1,5-a][1,4]diazepine-1-carboxamide] had a pEC50 of under 5.00. Moreover, the “+/− RCB2” value on rat CB2 receptor (rCB2) is reported as “+”.

As for `CC(C)C[C@H](NC(=O)c1nc(-c2ccc(Cl)cc2F)n2c1CN(C)CCC2)C(N)=O` [Compound 564, (S)-N-(1-amino-4-methyl-1-oxopentan-2-yl)-3-(4-chloro-2-fluorophenyl)-8-methyl-6,7,8,9-tetrahydro-5H-imidazo[1,5-a][1,4]diazepine-1-carboxamide], the “+/− HCB1” value in experiment [1] is “+”. Moreover, the “+/− RCB2” value at rat CB2 receptor (rCB2) is reported as “+”.

For the compound `CNC(=O)[C@@H](NC(=O)c1nc(CCCCO)n2c1CN(C)CCC2)C(C)(C)C` [Compound 508, (S)-N-(3,3-dimethyl-1-(methylamino)-1-oxobutan-2-yl)-3-(4-hydroxybutyl)-8-methyl-6,7,8,9-tetrahydro-5H-imidazo[1,5-a][1,4]diazepine-1-carboxamide], the “+/− HCB1” value in experiment [1] is on record as “+”. The pEC50 on rat CB2 receptor (rCB2) is under 5.00.

Regarding `CCC(CO)NC(=O)c1nc(-c2ccccc2)n2c1CN(C)CC2` (stereo not drawn) [Compound 232, N-(1-hydroxybutan-2-yl)-7-methyl-3-phenyl-5,6,7,8-tetrahydroimidazo[1,5-a]pyrazine-1-carboxamide], the pEC50 (in experiment [1]; on rat CB2 receptor (rCB2)) was under 5.00 throughout.

In experiment [1], `CNC(=O)[C@H](CC(C)C)NC(=O)c1nc(C2=CCCCO2)n2c1CN(C)CC2` [Compound 280, (S)-3-(3,4-dihydro-2H-pyran-6-yl)-7-methyl-N-(4-methyl-1-(methylamino)-1-oxopentan-2-yl)-5,6,7,8-tetrahydroimidazo[1,5-a]pyrazine-1-carboxamide] showed a pEC50 of under 5.00. Further, the “+/− RCB2” value at rat CB2 receptor (rCB2) was “+”.

For the compound `CCN1CCn2c(-c3ccc(Cl)cc3)nc(C(=O)N[C@H](CO)C(C)(C)C)c2C1` [Compound 161, (S)-3-(4-chlorophenyl)-7-ethyl-N-(1-hydroxy-3,3-dimethylbutan-2-yl)-5,6,7,8-tetrahydroimidazo[1,5-a]pyrazine-1-carboxamide], in experiment [1], the pEC50 is under 5.00. Also, the “+/− RCB2” value at rat CB2 receptor (rCB2) was “−”.

On to `CNC(=O)[C@H](Cc1cscn1)NC(=O)c1nc(-c2cc(F)c(F)cc2F)n2c1CN(C)CCC2` [Compound 592, (S)-8-methyl-N-(1-(methylamino)-1-oxo-3-(thiazol-4-yl)propan-2-yl)-3-(2,4,5-trifluorophenyl)-6,7,8,9-tetrahydro-5H-imidazo[1,5-a][1,4]diazepine-1-carboxamide], for which the pEC50 (in experiment [1]; on rat CB2 receptor (rCB2)) was under 5.00 in each case.

As to `CCN1CCn2c(-c3ccccc3)nc(C(=O)NCC3CCOCC3)c2C1` [Compound 168, 7-ethyl-3-phenyl-N-((tetrahydro-2H-pyran-4-yl)methyl)-5,6,7,8-tetrahydroimidazo[1,5-a]pyrazine-1-carboxamide], the pEC50 in experiment [1] is under 5.00. In addition, the “+/− RCB2” value on rat CB2 receptor (rCB2) is reported as “−”.

Regarding `C[C@H](NC(=O)c1nc(-c2ccccc2)n2c1CN(C(=O)OC(C)(C)C)CC2)c1ccccc1` [Compound 31, (S)-tert-butyl 3-phenyl-1-(1-phenylethylcarbamoyl)-5,6-dihydroimidazo[1,5-a]pyrazine-7(8H)-carboxylate], the EC50 in experiment [1] was over 10000 nM. Further, the “+/− RCB2” value at rat CB2 receptor (rCB2) was “−”.

`CNC(=O)[C@@H](NC(=O)c1nc(CCCN2CCCCC2)n2c1CN(C)CC2)C(C)(C)C` [Compound 307, (S)-N-(3,3-dimethyl-1-(methylamino)-1-oxobutan-2-yl)-7-methyl-3-(3-(piperidin-1-yl)propyl)-5,6,7,8-tetrahydroimidazo[1,5-a]pyrazine-1-carboxamide]: the pEC50 in experiment [1] was under 5.00. The “+/− RCB2” value on rat CB2 receptor (rCB2) is “+”.
